Key:
Assay in all cases: relative viability (nuclei count vs DMSO), 5 days (fraction); higher = more cells survive
QS11 + Linsitinib = compound: C1CC2=C(C1)C=C(C=C2)OC3=NC(=C4C(=N3)N(C=N4)CC5=CC=C(C=C5)C6=CC=CC=C6)N[C@@H](CC7=CC=CC=C7)CO [QS11] + C[C@]1(O)C[C@@H](c2nc(-c3ccc4ccc(-c5ccccc5)nc4c3)c3c(N)nccn32)C1 [Linsitinib] (partner 1 µM)
In short: (§1)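 Lung cancer cell lines in 1536-well plates were dosed by pin tool the day after seeding, either with one drug alone or with a fixed anchor-drug dose plus five library-drug doses (not always all listed) in √10 steps. After 5 days, cells were fixed and their nuclei stained in one step (final 0.05% Triton X-100, 1% formaldehyde, 1 ug/ml Hoechst), then counted on 4× images. Relative viability is the nuclei count in treated wells divided by that in vehicle wells. Values are medians of duplicate plates.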

QS11 + Decitabine = compound: C1CC2=C(C1)C=C(C=C2)OC3=NC(=C4C(=N3)N(C=N4)CC5=CC=C(C=C5)C6=CC=CC=C6)N[C@@H](CC7=CC=CC=C7)CO [QS11] + Nc1ncn([C@H]2C[C@H](O)[C@@H](CO)O2)c(=O)n1 [Decitabine] (partner 2 µM)
In short: as §1

[1] = compound: C[As](C)SC[C@H](NC(=O)CC[C@H](N)C(=O)O)C(=O)NCC(=O)O [Darinaparsin] + CC(C)C[C@H](NC(=O)[C@H](Cc1ccccc1)NC(=O)c1cnccn1)B(O)O [Bortezomib] (partner 0.002 µM)
In short: as §1

Darinaparsin + Lapatinib = compound: C[As](C)SC[C@H](NC(=O)CC[C@H](N)C(=O)O)C(=O)NCC(=O)O [Darinaparsin] + CS(=O)(=O)CCNCc1ccc(-c2ccc3ncnc(Nc4ccc(OCc5cccc(F)c5)c(Cl)c4)c3c2)o1 [Lapatinib] (partner 2 µM)
In short: as §1

Row | Cell Line | relative viability (QS11 + Linsitinib; first compound 0.08 µM) | relative viability (QS11 + Linsitinib; first compound 0.253 µM) | relative viability (QS11 + Linsitinib; first compound 0.8 µM) | relative viability (QS11 + Linsitinib; first compound 2.53 µM) | relative viability (QS11 + Linsitinib; first compound 8 µM) | relative viability (QS11 + Decitabine; first compound 0.08 µM) | relative viability (QS11 + Decitabine; first compound 0.253 µM) | relative viability (QS11 + Decitabine; first compound 0.8 µM) | relative viability (QS11 + Decitabine; first compound 2.53 µM) | relative viability (QS11 + Decitabine; first compound 8 µM) | relative viability ([1]; first compound 0.08 µM) | relative viability ([1]; first compound 0.8 µM) | relative viability ([1]; first compound 2.53 µM) | relative viability ([1]; first compound 8 µM) | relative viability (Darinaparsin + Lapatinib; first compound 0.08 µM) | relative viability (Darinaparsin + Lapatinib; first compound 0.8 µM) | relative viability (Darinaparsin + Lapatinib; first compound 2.53 µM) | relative viability (Darinaparsin + Lapatinib; first compound 8 µM)
1 | NCI-H441 | 0.519 | 0.544 | 0.613 | 0.561 | 0.601 | 0.236 | 0.215 | 0.254 | 0.234 | 0.225 | 0.611 | 0.513 | 0.636 | 0.447 |  |  |  | 
2 | LU99A | 0.529 | 0.561 | 0.555 | 0.465 | 0.38 | 0.873 | 0.967 | 0.963 | 0.922 | 0.931 | 1.33 | 1.01 | 1.17 | 1.21 | 1.03 | 0.942 | 0.923 | 1.22
3 | NCI-H661 | 0.522 | 0.681 | 0.556 | 0.408 | 0.549 | 0.511 | 0.585 | 0.474 | 0.554 | 0.46 | 0.975 | 0.853 | 0.92 | 0.889 | 0.509 | 0.584 | 0.513 | 0.511
4 | PC-14 | 1.04 | 1.08 | 0.758 | 0.906 | 0.901 | 0.244 | 0.196 | 0.199 | 0.22 | 0.195 | 0.925 | 0.77 | 0.753 | 1.11 | 0.333 | 0.294 | 0.32 | 0.372
5 | SK-LU-1 | 1.1 | 1.08 | 0.989 | 0.71 | 0.732 | 0.586 | 0.59 | 0.595 | 0.6 | 0.57 | 1.58 | 1.19 | 0.871 | 1.33 | 1.08 | 0.802 | 0.574 | 0.932
6 | NCI-H2085 | 0.885 | 1.19 | 1.01 | 0.959 | 1.07 | 0.478 | 0.549 | 0.49 | 0.56 | 0.557 | 0.987 | 0.996 | 1.07 | 1.16 | 0.809 | 0.697 | 0.776 | 0.916
7 | NCI-H1299 | 0.999 | 0.995 | 0.787 | 0.87 | 0.959 |  |  |  |  |  | 1.01 | 0.99 | 1.03 | 1.04 | 1.09 | 0.955 | 0.958 | 0.853
8 | A549 | 0.506 | 0.558 | 0.507 | 0.475 | 0.885 | 0.224 | 0.215 | 0.271 | 0.214 | 0.212 |  |  |  |  | 1.45 | 1.05 | 1.01 | 1.06
9 | NCI-H1395 |  | 1.01 | 1.17 | 1.16 | 1.18 | 0.699 | 0.791 | 0.71 | 0.789 | 0.801 |  |  |  |  | 1.3 | 0.949 | 1.03 | 1.37
10 | NCI-H1666 | 0.853 | 0.644 | 0.644 | 0.53 | 0.464 | 0.746 | 0.748 | 0.653 | 0.699 | 0.485 | 0.916 | 0.882 | 0.978 | 0.847 | 0.763 | 0.587 | 0.59 | 0.701
